Test results from paper PMC4505686 (ACS Chemical Neuroscience, 2015).
Changes are numbered by the printed parent chain.

Key:
[1] = target: 5-HT binding protein (5-HTBP), an acetylcholine binding protein (AChBP) from Aplysia californica engineered to bind 5-HT (Aplysia californica); test: crystal structure; 5-HTBP at 6 mg/mL mixed with 5 mM varenicline; space group P4(1)2(1)2; 2.3 Å; one pentamer per asymmetric unit
5-HT3 receptor (5-HT3A) [2] = target: T1, 5-HT3 receptor (5-HT3A) (Homo sapiens, UniProt P46098, W85Y); test: membrane potential dye fluorescence, FlexStation, transfected HEK293 cells; assay type: cell-based; conditions: read-out: varenicline EC50
T1 construct: gene HTR3A; full-length cDNA in pcDNA3.1, transiently expressed in HEK293 cells; homopentamer (also in Xenopus oocytes)
T1 sequence (P46098 24-478 W85Y): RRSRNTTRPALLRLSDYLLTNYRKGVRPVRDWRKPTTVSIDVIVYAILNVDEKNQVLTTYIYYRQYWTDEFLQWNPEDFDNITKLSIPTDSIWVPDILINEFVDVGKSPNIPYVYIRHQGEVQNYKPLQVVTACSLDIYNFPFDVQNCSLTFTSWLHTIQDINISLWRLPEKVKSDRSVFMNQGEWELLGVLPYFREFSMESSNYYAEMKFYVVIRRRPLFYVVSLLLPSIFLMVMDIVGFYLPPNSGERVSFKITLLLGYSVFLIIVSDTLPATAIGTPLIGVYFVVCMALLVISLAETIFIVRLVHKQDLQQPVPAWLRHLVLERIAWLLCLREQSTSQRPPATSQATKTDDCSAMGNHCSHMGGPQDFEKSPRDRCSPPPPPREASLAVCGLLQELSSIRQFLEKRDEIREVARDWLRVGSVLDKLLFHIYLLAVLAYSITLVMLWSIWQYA

5-HT3 receptor (5-HT3A) [3] = target: T2, 5-HT3 receptor (5-HT3A) (Homo sapiens, UniProt P46098); test: as above; assay type: cell-based; conditions: read-out: varenicline EC50
T2 construct: gene HTR3A; full-length cDNA in pcDNA3.1, transiently expressed in HEK293 cells; homopentamer (also in Xenopus oocytes)
T2 sequence (P46098 24-478): T1 sequence (P46098 24-478 W85Y) with Y62W

5-HT3 receptor (5-HT3A) [4] = target: T3, 5-HT3 receptor (5-HT3A) (Homo sapiens, UniProt P46098, Y89A); test: as above; assay type: cell-based; conditions: read-out: varenicline EC50
T3 construct: gene HTR3A; full-length cDNA in pcDNA3.1, transiently expressed in HEK293 cells; homopentamer (also in Xenopus oocytes)
T3 sequence (P46098 24-478 Y89A): T1 sequence (P46098 24-478 W85Y) with Y62W, Y66A

5-HTBP = 5-HTBP (Aplysia californica, UniProt Q8WSF8, Q74R/S111E/V159L/K160T); test: X-ray crystal structure, […] Å; assay type: binding; conditions: co-crystallised, 5 mM varenicline (tartrate) with 6 mg/mL protein; orthosteric site, all five sites
5-HT3 receptor (5-HT3A) [5] = target: T4, 5-HT3 receptor (5-HT3A) (Homo sapiens, UniProt P46098, W178Y); test: membrane potential dye fluorescence, FlexStation, transfected HEK293 cells; assay type: cell-based; conditions: read-out: varenicline EC50
T4 construct: gene HTR3A; full-length cDNA in pcDNA3.1, transiently expressed in HEK293 cells; homopentamer (also in Xenopus oocytes)
T4 sequence (P46098 24-478 W178Y): T1 sequence (P46098 24-478 W85Y) with Y62W, W155Y

5-HT3 receptor (5-HT3A) [6] = target: T5, 5-HT3 receptor (5-HT3A) (Homo sapiens, UniProt P46098, N123Q); test: as above; assay type: cell-based; conditions: read-out: varenicline EC50
T5 construct: gene HTR3A; full-length cDNA in pcDNA3.1, transiently expressed in HEK293 cells; homopentamer (also in Xenopus oocytes)
T5 sequence (P46098 24-478 N123Q): T1 sequence (P46098 24-478 W85Y) with Y62W, N100Q

5-HT3 receptor (5-HT3A) [7] = target: T6, 5-HT3 receptor (5-HT3A) (Homo sapiens, UniProt P46098, Y148A); test: as above; assay type: cell-based; conditions: read-out: varenicline EC50
T6 construct: gene HTR3A; full-length cDNA in pcDNA3.1, transiently expressed in HEK293 cells; homopentamer (also in Xenopus oocytes)
T6 sequence (P46098 24-478 Y148A): T1 sequence (P46098 24-478 W85Y) with Y62W, Y125A

Chain of 5-HTBP (Q8WSF8 entry or part of it Q74R/S111E/V159L/K160T): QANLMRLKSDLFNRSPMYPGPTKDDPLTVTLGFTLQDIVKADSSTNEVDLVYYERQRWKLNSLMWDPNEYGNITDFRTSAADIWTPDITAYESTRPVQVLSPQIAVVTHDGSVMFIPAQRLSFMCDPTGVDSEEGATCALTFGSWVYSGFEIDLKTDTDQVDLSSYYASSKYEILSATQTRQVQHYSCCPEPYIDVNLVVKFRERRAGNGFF

“5-HT binding protein (5-HTBP), an acetylcholine binding protein (AChBP) from Aplysia californica engineered to bind 5-HT (natural protein)” showed a stoichiometry N [1] of 5.

For `c1cnc2cc3c(cc2n1)C1CNCC3C1` [varenicline], the EC50 (5-HT3 receptor (5-HT3A) [2]) was 2.9 µM, the EC50 (5-HT3 receptor (5-HT3A) [3]) was 0.42 µM and the EC50 (5-HT3 receptor (5-HT3A) [4]) was 0.13 µM. The “X-ray crystal structure, 2.3 Å” value (5-HTBP) was “three-dimensional structure of 5-HTBP in complex with varenicline”, the EC50 (5-HT3 receptor (5-HT3A) [5]) was 38 µM and the EC50 (5-HT3 receptor (5-HT3A) [6]) was 26 µM. It also gave an EC50 (5-HT3 receptor (5-HT3A) [7]) of 9.4 µM.
